Reference: patent US20250145665A1, “MACROCYCLIC PEPTIDES USEFUL AS MODULATORS OF TNF ALPHA” (Bristol-Myers Squibb Company, priority 2023, published 2025)
Starred links: 1 amine or outer side, 2 acyl side, 3 side chain; linkers in the order of their positions; H or OH if unused. Positions of bridges follow the written chain, without caps; N, C: chain ends. Non-standard residues stand in square brackets, D forms with d. Residues, ends and D or L forms follow the SMILES beside them. *: point of attachment. Bip(4'-NHBz) = N[C@@H](Cc1ccc(-c2ccc(NC(=O)c3ccccc3)cc2)cc1)C(=O)O; Bip(4'-NH) = O=C([C@H](Cc1ccc(-c2ccc(N[*:3])cc2)cc1)N[*:1])[*:2]; Indazole3carbonyl(1-CH2COOH) = O=C(O)Cn1nc(C(=O)*)c2ccccc21; Bip(4'-COOH) = N[C@@H](Cc1ccc(-c2ccc(C(=O)O)cc2)cc1)C(=O)O; X42 = O=C(O)Cn1cc(C[C@H](NC(=O)c2ccccc2)C(=O)*)c2ccccc21; X4 = N=C(NCCCc1cccc(N)c1)NCCC[C@@H](N[*:1])C(=O)[*:2]; X6 = N=C(NCCCCC(N)=O)NCCC[C@@H](N[*:1])C(=O)[*:2]; Ala(morpholin-4-yl) = N[C@@H](CN1CCOCC1)C(=O)O; Phe(3-CONH2) = NC(=O)c1cccc(C[C@H](N)C(=O)O)c1; X41 = N=C(NCCCO)NCCC[C@@H](N[*:1])C(=O)[*:2]; X12 = N=C(NCCO)NCCC[C@@H](N[*:1])C(=O)[*:2]; Bip = N[C@@H](Cc1ccc(-c2ccccc2)cc1)C(=O)O; X67 = O=C(O)c1ccc(-c2cccc(C(=O)*)c2)cc1; 2Pal = N[C@@H](Cc1ccccn1)C(=O)O; Tic = O=C(O)[C@@H]1Cc2ccccc2CN1; Cha = N[C@@H](CC1CCCCC1)C(=O)O; Tle = CC(C)(C)[C@H](N)C(=O)O; Sar = CNCC(=O)O

What follows are compounds tested against TNFα (Homo sapiens, UniProt P01375) (assay: TNF-Induced HEK-Blue Assay). Conditions: not given.
Assay type: cell-based

TNFα, sequence (P01375 77-233 limits assumed): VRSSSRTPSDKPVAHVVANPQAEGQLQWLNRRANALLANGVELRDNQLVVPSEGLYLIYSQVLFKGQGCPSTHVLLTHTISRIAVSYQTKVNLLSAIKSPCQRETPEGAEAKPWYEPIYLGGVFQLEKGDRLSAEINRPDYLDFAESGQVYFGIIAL

SMILES | IC50 [nM]
CC[C@H](C)[C@@H]1NC(=O)[C@@H]2CCCN2C(=O)[C@H]([C@@H](C)CC)NC(=O)[C@@H](CCCNC(=N)N)NC(=O)[C@H](CC(=O)O)NC(=O)[C@H](Cc2ccccn2)NC(=O)CN(C)C(=O)[C@H](Cc2ccc(-c3ccc(NC(=O)[C@H](Cc4cn(CC(=O)O)c5ccccc45)NC(=O)c4ccccc4)cc3)cc2)NC(=O)[C@H](Cc2ccc(-c3ccccc3)cc2)NC(=O)[C@H](C(C)(C)C)NC(=O)CSC[C@@H](C(=O)NCC(N)=O)NC(=O)[C@H](CC(C)C)NC(=O)[C@H](Cc2cccc(C(N)=O)c2)NC1=O [Example 380] ({CH2CO}-[Tle][Bip][Bip(4'-NH)](X42)[Sar][2Pal]D[dR]IPI[Phe(3-CONH2)]LCG-NH2; thioether N-13) | 50 to 200
CC(C)C[C@@H]1NC(=O)[C@H](Cc2ccc(O)cc2)NC(=O)[C@H](C(C)C)NC(=O)[C@@H]2Cc3ccccc3CN2C(=O)[C@H](C(C)C)NC(=O)[C@@H](CCCNC(=N)N)NC(=O)[C@H](CC(=O)O)NC(=O)[C@@H]2CCCN2C(=O)CN(C)C(=O)[C@H](Cc2ccc(-c3ccc(NC(=O)c4ccccc4)cc3)cc2)NC(=O)[C@H](Cc2ccc(-c3ccc(C(=O)O)cc3)cc2)NC(=O)[C@H](CC2CCCCC2)NC(=O)CSC[C@@H](C(=O)NCC(N)=O)NC1=O [Example 383] ({CH2CO}-[Cha][Bip(4'-COOH)][Bip(4'-NHBz)][Sar]PD[dR]V[Tic]VYLCG-NH2; thioether N-13) | 50 to 200
CC(C)C[C@@H]1NC(=O)[C@H](CCCNC(=N)N)NC(=O)[C@H](C(C)C)NC(=O)[C@@H]2CCCN2C(=O)[C@H](C(C)C)NC(=O)[C@@H](CCCNC(=N)NCCO)NC(=O)[C@H](CC(=O)O)NC(=O)[C@@H]2CCCN2C(=O)CN(C)C(=O)[C@H](Cc2ccc(-c3ccc(NC(=O)c4nn(CC(=O)O)c5ccccc45)cc3)cc2)NC(=O)[C@H](Cc2ccc(-c3ccccc3)cc2)NC(=O)[C@H](CN2CCOCC2)NC(=O)CSC[C@@H](C(=O)NCC(N)=O)NC1=O [Example 387] ({CH2CO}-[Ala(morpholin-4-yl)][Bip][Bip(4'-NH)](Indazole3carbonyl(1-CH2COOH))[Sar]PD[X12]VPVRLCG-NH2; thioether N-13) | < 50
CC(C)C[C@@H]1NC(=O)[C@H](CCCNC(=N)N)NC(=O)[C@H](C(C)C)NC(=O)[C@@H]2CCCN2C(=O)[C@H](C(C)C)NC(=O)[C@@H](CCCNC(=N)NCCCO)NC(=O)[C@H](CC(=O)O)NC(=O)[C@@H]2CCCN2C(=O)CN(C)C(=O)[C@H](Cc2ccc(-c3ccc(NC(=O)c4nn(CC(=O)O)c5ccccc45)cc3)cc2)NC(=O)[C@H](Cc2ccc(-c3ccccc3)cc2)NC(=O)[C@H](CN2CCOCC2)NC(=O)CSC[C@@H](C(=O)NCC(N)=O)NC1=O [Example 389] ({CH2CO}-[Ala(morpholin-4-yl)][Bip][Bip(4'-NH)](Indazole3carbonyl(1-CH2COOH))[Sar]PD[X41]VPVRLCG-NH2; thioether N-13) | < 50
CC(C)C[C@@H]1NC(=O)[C@H](CCCNC(=N)N)NC(=O)[C@H](C(C)C)NC(=O)[C@@H]2CCCN2C(=O)[C@H](C(C)C)NC(=O)[C@@H](CCCNC(=N)NCCCCC(N)=O)NC(=O)[C@H](CC(=O)O)NC(=O)[C@@H]2CCCN2C(=O)CN(C)C(=O)[C@H](Cc2ccc(-c3ccc(NC(=O)c4nn(CC(=O)O)c5ccccc45)cc3)cc2)NC(=O)[C@H](Cc2ccc(-c3ccccc3)cc2)NC(=O)[C@H](CN2CCOCC2)NC(=O)CSC[C@@H](C(=O)NCC(N)=O)NC1=O [Example 391] ({CH2CO}-[Ala(morpholin-4-yl)][Bip][Bip(4'-NH)](Indazole3carbonyl(1-CH2COOH))[Sar]PD[X6]VPVRLCG-NH2; thioether N-13) | 50 to 200
CC(C)C[C@@H]1NC(=O)[C@H](CCCNC(=N)N)NC(=O)[C@H](C(C)C)NC(=O)[C@@H]2CCCN2C(=O)[C@H](C(C)C)NC(=O)[C@@H](CCCNC(=N)NCCCc2cccc(N)c2)NC(=O)[C@H](CC(=O)O)NC(=O)[C@@H]2CCCN2C(=O)CN(C)C(=O)[C@H](Cc2ccc(-c3ccc(NC(=O)c4nn(CC(=O)O)c5ccccc45)cc3)cc2)NC(=O)[C@H](Cc2ccc(-c3ccccc3)cc2)NC(=O)[C@H](CN2CCOCC2)NC(=O)CSC[C@@H](C(=O)NCC(N)=O)NC1=O [Example 393] ({CH2CO}-[Ala(morpholin-4-yl)][Bip][Bip(4'-NH)](Indazole3carbonyl(1-CH2COOH))[Sar]PD[X4]VPVRLCG-NH2; thioether N-13) | < 50

Same assay, conditions: HEK-Blue-CD40L cells, NF-kB-driven secreted alkaline phosphatase reporter; TNFα 0.5 ng/ml; 18 h; read-out: TNF induced HEK-Blue assay IC50 value

IC50 [nM] | SMILES
50 to 200 | CC(C)C[C@@H]1NC(=O)[C@H](Cc2ccc(O)cc2)NC(=O)[C@H](C(C)C)NC(=O)[C@@H]2Cc3ccccc3CN2C(=O)[C@H](C(C)C)NC(=O)[C@@H](CCCNC(=N)N)NC(=O)[C@H](CC(=O)O)NC(=O)[C@@H]2CCCN2C(=O)CN(C)C(=O)[C@H](Cc2ccc(-c3ccc(NC(=O)c4cccc(-c5ccc(C(=O)O)cc5)c4)cc3)cc2)NC(=O)[C@H](Cc2ccc(-c3ccc(C(=O)O)cc3)cc2)NC(=O)[C@H](CC2CCCCC2)NC(=O)CSC[C@@H](C(=O)NCC(N)=O)NC1=O [Example 381] ({CH2CO}-[Cha][Bip(4'-COOH)][Bip(4'-NH)](X67)[Sar]PD[dR]V[Tic]VYLCG-NH2; thioether N-13)
